Measured values from article PMC12670405, “Second-Generation AURKA-Targeting PROTACs: Structural Optimization toward in Vivo Degradation in Neuroblastoma” (Journal of Medicinal Chemistry, 2025).

Experiments:
Test in all cases: KINOMEscan scanMAX
Type in all cases: binding
Settings in all cases: read-out: Percent Control
ACVR1 = molecular target: T1, ACVR1 (Homo sapiens, UniProt Q04771)
T1 construct: purchased Eurofins Discovery (DiscoverX KINOMEscan scanMAX)
Procedure: (§1) The kinome-wide binding assay was performed by Eurofins Discovery using the scanMAX screening platform. More information can be found on the Eurofins Discovery Web site.

ACVR2B = molecular target: T2, ACVR2B (Homo sapiens, UniProt Q13705)
T2 construct: purchased Eurofins Discovery (DiscoverX KINOMEscan scanMAX)
Procedure: as §1

CAMK2B = molecular target: T3, CAMK2B (Homo sapiens, UniProt Q13554)
T3 construct: purchased Eurofins Discovery (DiscoverX KINOMEscan scanMAX)
T3 sequence (Q13554 whole entry): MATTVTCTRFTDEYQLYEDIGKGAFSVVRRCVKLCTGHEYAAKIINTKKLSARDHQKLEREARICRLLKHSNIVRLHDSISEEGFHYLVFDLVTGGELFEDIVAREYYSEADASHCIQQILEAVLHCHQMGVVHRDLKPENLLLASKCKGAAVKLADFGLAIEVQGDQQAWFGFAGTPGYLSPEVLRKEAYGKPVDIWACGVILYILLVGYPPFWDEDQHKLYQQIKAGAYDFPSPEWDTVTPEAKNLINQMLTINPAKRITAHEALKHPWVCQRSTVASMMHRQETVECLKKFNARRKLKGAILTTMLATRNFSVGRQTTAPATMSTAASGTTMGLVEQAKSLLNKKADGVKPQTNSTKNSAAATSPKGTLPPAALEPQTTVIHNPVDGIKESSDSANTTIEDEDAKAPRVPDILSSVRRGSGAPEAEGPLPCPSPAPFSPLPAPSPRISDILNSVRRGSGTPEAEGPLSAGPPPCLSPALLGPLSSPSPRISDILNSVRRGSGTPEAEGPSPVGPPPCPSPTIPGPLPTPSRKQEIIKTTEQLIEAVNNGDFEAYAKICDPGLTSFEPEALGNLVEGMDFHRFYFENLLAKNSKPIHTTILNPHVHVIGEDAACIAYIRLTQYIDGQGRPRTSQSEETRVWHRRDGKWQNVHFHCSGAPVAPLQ
Procedure: as §1

CDK8 = molecular target: T4, CDK8 (Homo sapiens, UniProt P49336)
T4 construct: purchased Eurofins Discovery (DiscoverX KINOMEscan scanMAX)
Procedure: as §1

CSNK1A1 = molecular target: T5, CSNK1A1 (Homo sapiens, UniProt P48729)
T5 construct: purchased Eurofins Discovery (DiscoverX KINOMEscan scanMAX)
T5 sequence (P48729 whole entry): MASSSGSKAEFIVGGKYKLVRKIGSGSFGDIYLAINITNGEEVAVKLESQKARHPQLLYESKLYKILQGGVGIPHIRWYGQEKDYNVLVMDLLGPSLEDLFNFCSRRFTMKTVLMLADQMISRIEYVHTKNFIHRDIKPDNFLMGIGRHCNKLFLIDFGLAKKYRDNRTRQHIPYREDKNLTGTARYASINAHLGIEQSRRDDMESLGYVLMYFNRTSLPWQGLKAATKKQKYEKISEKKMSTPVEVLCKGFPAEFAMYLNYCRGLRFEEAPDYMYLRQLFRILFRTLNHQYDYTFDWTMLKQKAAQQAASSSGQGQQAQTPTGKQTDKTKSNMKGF
Procedure: as §1

DAPK2 = molecular target: T6, DAPK2 (Homo sapiens, UniProt Q9UIK4)
T6 construct: purchased Eurofins Discovery (DiscoverX KINOMEscan scanMAX)
Procedure: as §1

DAPK3 = molecular target: T7, DAPK3 (Homo sapiens, UniProt O43293)
T7 construct: purchased Eurofins Discovery (DiscoverX KINOMEscan scanMAX)
T7 sequence (O43293 whole entry): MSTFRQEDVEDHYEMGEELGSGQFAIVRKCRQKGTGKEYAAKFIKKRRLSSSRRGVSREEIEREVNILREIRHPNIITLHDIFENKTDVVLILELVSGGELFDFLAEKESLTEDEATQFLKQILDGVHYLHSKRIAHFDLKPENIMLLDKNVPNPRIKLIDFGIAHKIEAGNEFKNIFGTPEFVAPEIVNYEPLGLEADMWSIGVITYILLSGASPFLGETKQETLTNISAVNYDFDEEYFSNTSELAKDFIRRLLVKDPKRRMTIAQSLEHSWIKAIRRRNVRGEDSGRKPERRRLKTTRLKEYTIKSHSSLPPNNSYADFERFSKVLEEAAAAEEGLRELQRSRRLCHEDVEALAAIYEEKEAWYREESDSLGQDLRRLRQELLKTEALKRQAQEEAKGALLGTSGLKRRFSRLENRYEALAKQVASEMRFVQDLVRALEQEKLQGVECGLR
Procedure: as §1

DDR2 = molecular target: T8, DDR2 (Homo sapiens, UniProt Q16832)
T8 construct: purchased Eurofins Discovery (DiscoverX KINOMEscan scanMAX)
Procedure: as §1

DMPK2 = molecular target: T9, DMPK2 (Homo sapiens, UniProt Q6DT37)
T9 construct: purchased Eurofins Discovery (DiscoverX KINOMEscan scanMAX)
Procedure: as §1

DYRK1B = molecular target: T10, DYRK1B (Homo sapiens, UniProt Q9Y463)
T10 construct: purchased Eurofins Discovery (DiscoverX KINOMEscan scanMAX)
Procedure: as §1

EGFR(T790M) = molecular target: T11, EGFR(T790M) (Homo sapiens, UniProt P00533, T790M)
T11 construct: purchased Eurofins Discovery (DiscoverX KINOMEscan scanMAX)
Procedure: as §1

EPHB4 = molecular target: T12, EPHB4 (Homo sapiens, UniProt P54760)
T12 construct: purchased Eurofins Discovery (DiscoverX KINOMEscan scanMAX)
Procedure: as §1

FES = molecular target: T13, FES (Homo sapiens, UniProt P07332)
T13 construct: purchased Eurofins Discovery (DiscoverX KINOMEscan scanMAX)
Procedure: as §1

FLT3(D835H) = molecular target: T14, FLT3(D835H) (Homo sapiens, UniProt P36888, D835H)
T14 construct: purchased Eurofins Discovery (DiscoverX KINOMEscan scanMAX)
Procedure: as §1

FLT3(D835Y) = molecular target: T15, FLT3(D835Y) (Homo sapiens, UniProt P36888, D835Y)
T15 construct: purchased Eurofins Discovery (DiscoverX KINOMEscan scanMAX)
Procedure: as §1

LOK = molecular target: T16, LOK (Homo sapiens, UniProt O94804)
T16 construct: purchased Eurofins Discovery (DiscoverX KINOMEscan scanMAX)
Procedure: as §1

LZK = molecular target: T17, LZK (Homo sapiens, UniProt O43283)
T17 construct: purchased Eurofins Discovery (DiscoverX KINOMEscan scanMAX)
Procedure: as §1

MAST1 = molecular target: T18, MAST1 (Homo sapiens, UniProt Q9Y2H9)
T18 construct: purchased Eurofins Discovery (DiscoverX KINOMEscan scanMAX)
Procedure: as §1

MINK = molecular target: T19, MINK (Homo sapiens, UniProt Q8N4C8)
T19 construct: purchased Eurofins Discovery (DiscoverX KINOMEscan scanMAX)
Procedure: as §1

MST2 = molecular target: T20, MST2 (Homo sapiens, UniProt Q13188)
T20 construct: purchased Eurofins Discovery (DiscoverX KINOMEscan scanMAX)
Procedure: as §1

MYO3A = molecular target: T21, MYO3A (Homo sapiens, UniProt Q8NEV4)
T21 construct: purchased Eurofins Discovery (DiscoverX KINOMEscan scanMAX)
Procedure: as §1

NEK2 = molecular target: T22, NEK2 (Homo sapiens, UniProt P51955)
T22 construct: purchased Eurofins Discovery (DiscoverX KINOMEscan scanMAX)
Procedure: as §1

NIK = molecular target: T23, NIK (Homo sapiens, UniProt Q99558)
T23 construct: purchased Eurofins Discovery (DiscoverX KINOMEscan scanMAX)
T23 sequence (Q99558 whole entry): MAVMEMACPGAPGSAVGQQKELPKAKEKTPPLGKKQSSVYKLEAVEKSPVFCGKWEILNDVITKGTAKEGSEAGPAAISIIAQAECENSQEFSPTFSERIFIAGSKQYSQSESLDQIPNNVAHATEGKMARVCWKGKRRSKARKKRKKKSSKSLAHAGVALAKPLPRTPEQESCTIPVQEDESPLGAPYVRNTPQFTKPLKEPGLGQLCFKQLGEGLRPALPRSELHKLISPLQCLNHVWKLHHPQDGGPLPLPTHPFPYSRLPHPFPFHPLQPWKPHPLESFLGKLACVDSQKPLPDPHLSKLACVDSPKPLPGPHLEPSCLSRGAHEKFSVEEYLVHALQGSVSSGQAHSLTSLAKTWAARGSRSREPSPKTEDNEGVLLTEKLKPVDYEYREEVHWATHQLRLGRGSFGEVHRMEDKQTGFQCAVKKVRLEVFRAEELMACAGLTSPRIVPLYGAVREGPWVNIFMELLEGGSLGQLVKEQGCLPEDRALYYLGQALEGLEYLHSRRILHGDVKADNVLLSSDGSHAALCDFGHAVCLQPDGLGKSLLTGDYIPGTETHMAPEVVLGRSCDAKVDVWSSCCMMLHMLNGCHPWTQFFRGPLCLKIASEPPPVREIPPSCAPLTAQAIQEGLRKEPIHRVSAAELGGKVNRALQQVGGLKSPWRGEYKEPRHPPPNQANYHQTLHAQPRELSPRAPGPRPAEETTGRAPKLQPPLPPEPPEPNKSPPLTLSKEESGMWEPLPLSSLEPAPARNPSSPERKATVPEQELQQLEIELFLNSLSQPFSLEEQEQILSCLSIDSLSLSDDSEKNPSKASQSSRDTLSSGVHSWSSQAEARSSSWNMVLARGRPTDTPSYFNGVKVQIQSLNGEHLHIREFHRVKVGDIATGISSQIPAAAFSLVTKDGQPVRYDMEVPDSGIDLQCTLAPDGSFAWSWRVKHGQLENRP
Procedure: as §1

PDGFRB = molecular target: T24, PDGFRB (Homo sapiens, UniProt P09619)
T24 construct: purchased Eurofins Discovery (DiscoverX KINOMEscan scanMAX)
Procedure: as §1

PIP5K2B = molecular target: T25, PIP5K2B (Homo sapiens, UniProt P78356)
T25 construct: purchased Eurofins Discovery (DiscoverX KINOMEscan scanMAX)
Procedure: as §1

PKN1 = molecular target: T26, PKN1 (Homo sapiens, UniProt Q16512)
T26 construct: purchased Eurofins Discovery (DiscoverX KINOMEscan scanMAX)
Procedure: as §1

PLK3 = molecular target: T27, PLK3 (Homo sapiens, UniProt Q9H4B4)
T27 construct: purchased Eurofins Discovery (DiscoverX KINOMEscan scanMAX)
Procedure: as §1

RET(M918T) = molecular target: T28, RET(M918T) (Homo sapiens, UniProt P07949, M918T)
T28 construct: purchased Eurofins Discovery (DiscoverX KINOMEscan scanMAX)
Procedure: as §1

RET(V804L) = molecular target: T29, RET(V804L) (Homo sapiens, UniProt P07949, V804L)
T29 construct: purchased Eurofins Discovery (DiscoverX KINOMEscan scanMAX)
Procedure: as §1

RIPK2 = molecular target: T30, RIPK2 (Homo sapiens, UniProt O43353)
T30 construct: purchased Eurofins Discovery (DiscoverX KINOMEscan scanMAX)
Procedure: as §1

SRPK2 = molecular target: T31, SRPK2 (Homo sapiens, UniProt P78362)
T31 construct: purchased Eurofins Discovery (DiscoverX KINOMEscan scanMAX)
T31 sequence (P78362 whole entry): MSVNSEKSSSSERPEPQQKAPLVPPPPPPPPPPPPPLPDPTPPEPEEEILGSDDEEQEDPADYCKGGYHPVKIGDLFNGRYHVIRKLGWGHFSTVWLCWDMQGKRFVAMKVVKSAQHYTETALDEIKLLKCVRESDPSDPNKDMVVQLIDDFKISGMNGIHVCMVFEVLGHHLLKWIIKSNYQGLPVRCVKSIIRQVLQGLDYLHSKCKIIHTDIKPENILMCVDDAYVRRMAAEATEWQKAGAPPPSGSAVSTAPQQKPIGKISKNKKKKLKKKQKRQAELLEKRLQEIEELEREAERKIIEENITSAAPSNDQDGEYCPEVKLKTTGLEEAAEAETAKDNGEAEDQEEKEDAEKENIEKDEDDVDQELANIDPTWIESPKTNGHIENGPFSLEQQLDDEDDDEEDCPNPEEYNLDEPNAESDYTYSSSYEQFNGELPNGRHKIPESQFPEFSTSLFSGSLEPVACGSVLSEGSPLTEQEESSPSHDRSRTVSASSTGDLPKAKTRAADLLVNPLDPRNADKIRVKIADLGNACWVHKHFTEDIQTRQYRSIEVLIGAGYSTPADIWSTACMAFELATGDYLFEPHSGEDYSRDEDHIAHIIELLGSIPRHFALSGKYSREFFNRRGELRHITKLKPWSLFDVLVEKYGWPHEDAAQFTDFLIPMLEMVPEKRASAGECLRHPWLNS
Procedure: as §1

TRKB = molecular target: T32, TRKB (Homo sapiens, UniProt Q16620)
T32 construct: purchased Eurofins Discovery (DiscoverX KINOMEscan scanMAX)
T32 sequence (Q16620 32-822): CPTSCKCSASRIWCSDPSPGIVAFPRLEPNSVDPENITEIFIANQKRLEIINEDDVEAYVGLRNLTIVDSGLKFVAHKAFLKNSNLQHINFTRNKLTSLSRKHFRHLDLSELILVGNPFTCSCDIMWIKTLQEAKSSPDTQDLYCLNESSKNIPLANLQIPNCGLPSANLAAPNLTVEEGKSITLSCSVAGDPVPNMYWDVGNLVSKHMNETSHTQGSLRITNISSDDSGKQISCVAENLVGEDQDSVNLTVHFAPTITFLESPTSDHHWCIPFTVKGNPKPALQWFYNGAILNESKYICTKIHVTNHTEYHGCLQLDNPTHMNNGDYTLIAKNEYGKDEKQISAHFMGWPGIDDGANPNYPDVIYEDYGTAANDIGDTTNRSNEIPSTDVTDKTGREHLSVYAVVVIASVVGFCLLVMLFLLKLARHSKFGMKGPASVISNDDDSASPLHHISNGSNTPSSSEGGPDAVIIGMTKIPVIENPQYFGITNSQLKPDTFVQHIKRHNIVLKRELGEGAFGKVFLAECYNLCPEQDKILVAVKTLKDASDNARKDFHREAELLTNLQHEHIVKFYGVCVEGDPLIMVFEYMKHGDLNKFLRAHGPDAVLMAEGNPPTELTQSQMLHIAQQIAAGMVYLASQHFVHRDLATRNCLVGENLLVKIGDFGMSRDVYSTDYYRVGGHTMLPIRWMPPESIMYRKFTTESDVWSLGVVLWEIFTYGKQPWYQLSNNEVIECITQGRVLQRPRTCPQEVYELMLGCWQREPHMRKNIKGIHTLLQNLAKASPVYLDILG
Procedure: as §1

WNK3 = molecular target: T33, WNK3 (Homo sapiens, UniProt Q9BYP7)
T33 construct: purchased Eurofins Discovery (DiscoverX KINOMEscan scanMAX)
Procedure: as §1

ZAK = molecular target: T34, ZAK (Homo sapiens, UniProt Q9NYL2)
T34 construct: purchased Eurofins Discovery (DiscoverX KINOMEscan scanMAX)
T34 sequence (Q9NYL2 whole entry): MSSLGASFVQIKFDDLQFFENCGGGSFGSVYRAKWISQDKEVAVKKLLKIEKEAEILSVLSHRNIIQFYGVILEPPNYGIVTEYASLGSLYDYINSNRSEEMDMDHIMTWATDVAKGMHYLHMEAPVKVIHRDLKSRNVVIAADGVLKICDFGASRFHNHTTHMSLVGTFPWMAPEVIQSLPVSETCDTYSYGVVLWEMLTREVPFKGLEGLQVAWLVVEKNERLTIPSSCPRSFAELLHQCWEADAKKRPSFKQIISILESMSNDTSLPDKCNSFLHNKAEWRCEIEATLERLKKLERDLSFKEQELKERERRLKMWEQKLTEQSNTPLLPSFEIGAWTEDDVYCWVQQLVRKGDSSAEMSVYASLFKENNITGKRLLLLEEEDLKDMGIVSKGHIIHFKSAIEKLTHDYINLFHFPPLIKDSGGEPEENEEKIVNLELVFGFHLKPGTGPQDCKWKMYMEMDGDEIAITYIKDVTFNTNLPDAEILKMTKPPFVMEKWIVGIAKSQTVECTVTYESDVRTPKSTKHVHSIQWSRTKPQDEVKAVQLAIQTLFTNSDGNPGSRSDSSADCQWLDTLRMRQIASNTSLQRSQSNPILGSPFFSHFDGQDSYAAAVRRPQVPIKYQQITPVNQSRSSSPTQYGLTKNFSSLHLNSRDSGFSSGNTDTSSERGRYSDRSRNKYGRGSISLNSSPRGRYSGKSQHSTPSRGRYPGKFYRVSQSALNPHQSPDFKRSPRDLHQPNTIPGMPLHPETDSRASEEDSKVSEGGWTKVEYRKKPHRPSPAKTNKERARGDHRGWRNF
Procedure: as §1

Cc1cc(Nc2ccc(F)c(CC3(C(=O)N4CCC(F)(CN5CCN(c6ccc(N7CCC(=O)NC7=O)cn6)CC5)CC4)CCN(Cc4cccc(Cl)c4F)CC3)n2)n[nH]1 [SK5527]
remaining binding at 0.1 µM (ACVR1; 100 nM): 68%
remaining binding at 1 µM (ACVR1; 1000 nM): 70%
remaining binding at 0.1 µM (ACVR2B; 100 nM): 100%
remaining binding at 1 µM (ACVR2B; 1000 nM): 87%
remaining binding at 0.1 µM (CAMK2B; 100 nM): 100%
remaining binding at 1 µM (CAMK2B; 1000 nM): 100%
remaining binding at 0.1 µM (CDK8; 100 nM): 88%
remaining binding at 1 µM (CDK8; 1000 nM): 89%
remaining binding at 0.1 µM (CSNK1A1; 100 nM): 100%
remaining binding at 1 µM (CSNK1A1; 1000 nM): 100%
remaining binding at 0.1 µM (DAPK2; 100 nM): 100%
remaining binding at 1 µM (DAPK2; 1000 nM): 93%
remaining binding at 0.1 µM (DAPK3; 100 nM): 100%
remaining binding at 1 µM (DAPK3; 1000 nM): 100%
remaining binding at 0.1 µM (DDR2; 100 nM): 98%
remaining binding at 1 µM (DDR2; 1000 nM): 100%
remaining binding at 0.1 µM (DMPK2; 100 nM): 100%
remaining binding at 1 µM (DMPK2; 1000 nM): 100%
remaining binding at 0.1 µM (DYRK1B; 100 nM): 98%
remaining binding at 1 µM (DYRK1B; 1000 nM): 74%
remaining binding at 0.1 µM (EGFR(T790M); 100 nM): 92%
remaining binding at 1 µM (EGFR(T790M); 1000 nM): 91%
remaining binding at 0.1 µM (EPHB4; 100 nM): 100%
remaining binding at 1 µM (EPHB4; 1000 nM): 100%
remaining binding at 0.1 µM (FES; 100 nM): 100%
remaining binding at 1 µM (FES; 1000 nM): 100%
remaining binding at 0.1 µM (FLT3(D835H); 100 nM): 89%
remaining binding at 1 µM (FLT3(D835H); 1000 nM): 54%
remaining binding at 0.1 µM (FLT3(D835Y); 100 nM): 69%
remaining binding at 1 µM (FLT3(D835Y); 1000 nM): 72%
remaining binding at 0.1 µM (LOK; 100 nM): 100%
remaining binding at 1 µM (LOK; 1000 nM): 100%
remaining binding at 0.1 µM (LZK; 100 nM): 92%
remaining binding at 1 µM (LZK; 1000 nM): 90%
remaining binding at 0.1 µM (MAST1; 100 nM): 72%
remaining binding at 1 µM (MAST1; 1000 nM): 100%
remaining binding at 0.1 µM (MINK; 100 nM): 98%
remaining binding at 1 µM (MINK; 1000 nM): 86%
remaining binding at 0.1 µM (MST2; 100 nM): 76%
remaining binding at 1 µM (MST2; 1000 nM): 55%
remaining binding at 0.1 µM (MYO3A; 100 nM): 100%
remaining binding at 1 µM (MYO3A; 1000 nM): 100%
remaining binding at 0.1 µM (NEK2; 100 nM): 90%
remaining binding at 1 µM (NEK2; 1000 nM): 91%
remaining binding at 0.1 µM (NIK; 100 nM): 100%
remaining binding at 1 µM (NIK; 1000 nM): 88%
remaining binding at 0.1 µM (PDGFRB; 100 nM): 100%
remaining binding at 1 µM (PDGFRB; 1000 nM): 63%
remaining binding at 0.1 µM (PIP5K2B; 100 nM): 100%
remaining binding at 1 µM (PIP5K2B; 1000 nM): 100%
remaining binding at 0.1 µM (PKN1; 100 nM): 100%
remaining binding at 1 µM (PKN1; 1000 nM): 89%
remaining binding at 0.1 µM (PLK3; 100 nM): 100%
remaining binding at 1 µM (PLK3; 1000 nM): 86%
remaining binding at 0.1 µM (RET(M918T); 100 nM): 95%
remaining binding at 1 µM (RET(M918T); 1000 nM): 38%
remaining binding at 0.1 µM (RET(V804L); 100 nM): 92%
remaining binding at 1 µM (RET(V804L); 1000 nM): 38%
remaining binding at 0.1 µM (RIPK2; 100 nM): 80%
remaining binding at 1 µM (RIPK2; 1000 nM): 88%
remaining binding at 0.1 µM (SRPK2; 100 nM): 93%
remaining binding at 1 µM (SRPK2; 1000 nM): 79%
remaining binding at 0.1 µM (TRKB; 100 nM): 95%
remaining binding at 1 µM (TRKB; 1000 nM): 47%
remaining binding at 0.1 µM (WNK3; 100 nM): 82%
remaining binding at 1 µM (WNK3; 1000 nM): 71%
remaining binding at 0.1 µM (ZAK; 100 nM): 77%
remaining binding at 1 µM (ZAK; 1000 nM): 85%
